Source: PubChem BioAssay (NCI)
Several values for one entry are separate records, joined by “and”; a condition that tells them apart may be missing. Equal entries are not always repeated.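 96-well plates; 48 h exposure; 5 concentrations. Endpoints by linear interpolation between flanking doses. Not reached: highest tested concentration assigned. GI50 = concentration required for 50% inhibition of growth. TGI denotes the concentration required for complete inhibition of growth.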

Columns and labels:
Assay in all cases: NCI tumour cell line growth inhibition, 48 h
COLO 205 colon = system: COLO 205 colon
EKVX NSCLC = system: EKVX NSCLC
LOX IMVI melanoma = system: LOX IMVI melanoma
MCF7 breast = system: MCF7 breast
MDA-MB-231 breast = system: MDA-MB-231 breast
NCI-H226 lung = system: NCI-H226 lung
OVCAR-8 ovarian = system: OVCAR-8 ovarian
SF-268 CNS = system: SF-268 CNS
SR leukemia = system: SR leukemia
UACC-257 melanoma = system: UACC-257 melanoma

## CCc1nc(N)nc(N)c1-c1ccc(N2CCNCC2)cc1
COLO 205 colon
  TGI: 41.1 µM
EKVX NSCLC
  TGI: > 100 µM
LOX IMVI melanoma
  TGI: > 100 µM
MCF7 breast
  TGI: > 94.3 µM
MDA-MB-231 breast
  TGI: > 100 µM
NCI-H226 lung
  TGI: > 100 µM
OVCAR-8 ovarian
  TGI: > 100 µM
SF-268 CNS
  TGI: > 100 µM
SR leukemia
  TGI: > 66.9 µM
UACC-257 melanoma
  TGI: > 86 µM

## CN1CCN(CCCOc2cccc3nc(Nc4ccc(Cl)c(C(F)(F)F)c4)ccc23)CC1
COLO 205 colon
  GI50: 1.72 µM
  TGI: 3.35 µM
EKVX NSCLC
  GI50: 1.82 µM
  TGI: 3.98 µM
LOX IMVI melanoma
  GI50: 1.56 µM
  TGI: 3.07 µM
MCF7 breast
  GI50: 1.41 µM
  TGI: 2.99 µM
MDA-MB-231 breast
  GI50: 1.47 µM
  TGI: 3.1 µM
NCI-H226 lung
  GI50: 2.07 µM
  TGI: 4.89 µM
SF-268 CNS
  GI50: 1.85 µM
  TGI: 3.66 µM
SR leukemia
  GI50: 0.54 µM
  TGI: 3.4 µM
UACC-257 melanoma
  GI50: 1.72 µM
  TGI: 3.5 µM

## Cc1cc([N+](=O)[O-])c2ccccc2[n+]1[O-]
COLO 205 colon
  GI50: 0.113 µM and 0.117 µM
  TGI: 0.338 µM and 0.319 µM
EKVX NSCLC
  GI50: 2.77 µM
  TGI: 12 µM
LOX IMVI melanoma
  GI50: 1.16 µM and 0.385 µM
  TGI: 3.48 µM and 1.87 µM
MCF7 breast
  GI50: 0.0489 µM and 0.0342 µM
  TGI: 0.461 µM and 0.45 µM
MDA-MB-231 breast
  GI50: 0.218 µM and 0.202 µM
  TGI: 0.755 µM and 0.72 µM
NCI-H226 lung
  GI50: 0.571 µM and 0.927 µM
  TGI: 3.27 µM and 4.62 µM
OVCAR-8 ovarian
  GI50: 0.683 µM and 0.688 µM
  TGI: 3.88 µM and 4.86 µM
SF-268 CNS
  GI50: 0.396 µM and 0.405 µM
  TGI: 5.84 µM and 5.82 µM
SR leukemia
  GI50: 0.0279 µM and 0.0264 µM
UACC-257 melanoma
  GI50: 1.71 µM and 1.49 µM
  TGI: 4.45 µM and 4.7 µM

## Cc1cc(N2CCN(C)CC2)n2nc(-c3ccc(Cl)cc3)nc2n1
COLO 205 colon
  TGI: > 100 µM
EKVX NSCLC
  TGI: > 100 µM
LOX IMVI melanoma
  TGI: > 100 µM
MCF7 breast
  TGI: > 100 µM
MDA-MB-231 breast
  TGI: > 100 µM
NCI-H226 lung
  TGI: > 100 µM
OVCAR-8 ovarian
  TGI: > 100 µM
SF-268 CNS
  TGI: > 100 µM
SR leukemia
  TGI: > 100 µM
UACC-257 melanoma
  TGI: > 100 µM

## CC[n+]1c(/C=C/C=C2\N(C)c3ccccc3C2(C)C)sc2ccccc21
COLO 205 colon
  GI50: 4.47 µM
  TGI: 9.13 µM
EKVX NSCLC
  GI50: 4.39 µM
  TGI: 12.8 µM
LOX IMVI melanoma
  GI50: 4 µM
  TGI: 8.48 µM
MCF7 breast
  GI50: 4.42 µM
  TGI: 10.4 µM
MDA-MB-231 breast
  GI50: 4.5 µM
  TGI: 10.3 µM
NCI-H226 lung
  GI50: 4.55 µM
  TGI: 12.2 µM
OVCAR-8 ovarian
  GI50: 4.31 µM
  TGI: 8.54 µM
SF-268 CNS
  GI50: 4.43 µM
  TGI: 8.92 µM
SR leukemia
  GI50: 3.32 µM
  TGI: 9.32 µM
UACC-257 melanoma
  GI50: 4.64 µM
  TGI: 9.02 µM

## O=S(=O)(c1cnccc1N1CCN(CCO)CC1)N1CCCC1
COLO 205 colon
  TGI: > 100 µM
EKVX NSCLC
  TGI: > 100 µM
LOX IMVI melanoma
  TGI: > 100 µM
MCF7 breast
  TGI: > 100 µM
MDA-MB-231 breast
  TGI: > 100 µM
NCI-H226 lung
  TGI: > 100 µM
OVCAR-8 ovarian
  TGI: > 100 µM
SF-268 CNS
  TGI: > 100 µM
SR leukemia
  TGI: > 100 µM
UACC-257 melanoma
  TGI: > 100 µM

## NS(=O)(=O)OCCCCCCCOS(N)(=O)=O
COLO 205 colon
  TGI: 814 µM
EKVX NSCLC
  TGI: 847 µM
LOX IMVI melanoma
  TGI: 724 µM
MCF7 breast
  TGI: 1780 µM
MDA-MB-231 breast
  TGI: 1030 µM
NCI-H226 lung
  TGI: 887 µM
OVCAR-8 ovarian
  TGI: 707 µM
SF-268 CNS
  TGI: 1290 µM
SR leukemia
  TGI: 912 µM
UACC-257 melanoma
  TGI: 1310 µM

## CCCCCCCCCCCC[n+]1ccc2ccccc2c1
COLO 205 colon
  GI50: 1.22 µM
  TGI: 2.59 µM
EKVX NSCLC
  GI50: 0.4 µM
  TGI: 1.77 µM
MCF7 breast
  GI50: 0.937 µM
  TGI: 2.88 µM
MDA-MB-231 breast
  GI50: 1.28 µM
  TGI: 2.85 µM
NCI-H226 lung
  GI50: 1.1 µM
  TGI: 3.85 µM
OVCAR-8 ovarian
  GI50: 0.654 µM
  TGI: 2.34 µM
SF-268 CNS
  GI50: 1.22 µM
  TGI: 2.57 µM
SR leukemia
  GI50: 0.75 µM
  TGI: 2.57 µM
UACC-257 melanoma
  GI50: 0.405 µM
  TGI: 1.82 µM

## CSC(=Nc1ccccc1)/N=C(\SCc1ccccc1)N(C)C
COLO 205 colon
  TGI: 1.58 µM
EKVX NSCLC
  TGI: 3.33 µM
LOX IMVI melanoma
  TGI: 0.383 µM
MCF7 breast
  TGI: 1.19 µM
MDA-MB-231 breast
  TGI: 2.39 µM
NCI-H226 lung
  TGI: 3.1 µM
OVCAR-8 ovarian
  TGI: 3.22 µM
SF-268 CNS
  TGI: 2.48 µM
SR leukemia
  TGI: > 100 µM
UACC-257 melanoma
  TGI: 3.23 µM

## NC(=S)c1c(N)n(C2OC(CO)C(O)C2O)c2ncnc(N)c12 (stereo unspecified)
COLO 205 colon
  GI50: 0.186 µM
  TGI: 0.567 µM
EKVX NSCLC
  GI50: 0.345 µM
  TGI: 11 µM
MCF7 breast
  GI50: 0.0579 µM
MDA-MB-231 breast
  GI50: 0.333 µM
  TGI: > 100 µM
NCI-H226 lung
  GI50: 0.695 µM
  TGI: 16 µM
OVCAR-8 ovarian
  GI50: 0.232 µM
  TGI: 0.863 µM
SF-268 CNS
  GI50: 0.425 µM
  TGI: 4.52 µM
SR leukemia
  GI50: 0.0636 µM
  TGI: 0.403 µM
UACC-257 melanoma
  GI50: 0.729 µM
  TGI: 4.8 µM

## CC1=C(Nc2ccc(N3CCN(C)CC3)cc2)C(=O)c2cncnc2C1=O
COLO 205 colon
  GI50: 15.8 µM
  TGI: 33.1 µM
EKVX NSCLC
  GI50: 5.63 µM
  TGI: 19.1 µM
MCF7 breast
  GI50: 1.92 µM
  TGI: 4.19 µM
MDA-MB-231 breast
  GI50: 2.67 µM
  TGI: 7.78 µM
NCI-H226 lung
  GI50: 15.2 µM
  TGI: 35.7 µM
OVCAR-8 ovarian
  GI50: 2.28 µM
  TGI: 6.28 µM
SF-268 CNS
  GI50: 16 µM
  TGI: 50.4 µM
SR leukemia
  GI50: 3.22 µM
  TGI: > 100 µM
UACC-257 melanoma
  GI50: 2.34 µM
  TGI: 6.42 µM

## COc1cccc(/C=C2\COc3ccc(-c4ccccc4)cc3C2=O)c1
COLO 205 colon
  GI50: 2.18 µM
  TGI: 5.06 µM
EKVX NSCLC
  GI50: 4.8 µM
  TGI: > 100 µM
LOX IMVI melanoma
  GI50: 2.02 µM
  TGI: 4.62 µM
MCF7 breast
  GI50: 2.05 µM
  TGI: 9.17 µM
MDA-MB-231 breast
  GI50: 2.94 µM
  TGI: 7.61 µM
NCI-H226 lung
  GI50: 2.57 µM
  TGI: 6.79 µM
OVCAR-8 ovarian
  GI50: 2.21 µM
  TGI: 6.14 µM
SF-268 CNS
  GI50: 3.52 µM
  TGI: 11.6 µM
SR leukemia
  GI50: 1.98 µM
  TGI: > 100 µM

## CCn1c(-c2nonc2N)nc2cncc(C(=O)N3CC[C@H](N)C3)c21
COLO 205 colon
  GI50: 5.87 µM
  TGI: 24.7 µM
LOX IMVI melanoma
  GI50: > 25 µM
  TGI: > 25 µM
MCF7 breast
  GI50: 14.1 µM
  TGI: > 25 µM
MDA-MB-231 breast
  GI50: > 25 µM
  TGI: > 25 µM
NCI-H226 lung
  GI50: 0.966 µM
  TGI: > 25 µM
OVCAR-8 ovarian
  GI50: > 25 µM
  TGI: > 25 µM
SF-268 CNS
  GI50: > 19.5 µM
  TGI: > 25 µM
SR leukemia
  GI50: 2.01 µM
  TGI: > 25 µM
UACC-257 melanoma
  GI50: > 25 µM
  TGI: > 25 µM
